Test results: US7271260B2, “3,4-dihydroquinazoline derivatives as T-type calcium channel blockers and method of preparing the same” (Korea Institute of Science and Technology, priority 2004, dated 2007)

Columns and labels:
[1] = test system: N-type (HVA) Ca2+ channel; experiment: Patch clamp of high voltage-activated calcium current in MPG (major pelvic ganglion) neurons; format: cell-based, rat; conditions: 10 μM; for selectivity for the sub-types of the calcium channel (T-type LVA vs N-type HVA): from Table 3; for Inhibitory effect, Ca2+ channel N-type (HVA): MPG neuron, n.i. = no inhibitory effect
Method: In order to examine the selectivity of the compound of the present invention for other ion channels, the inhibitory effects of KYS05001, KYS05041 and KYS05042 on […] and high voltage-activated Ca2+ channel (HVA) were measured according to a conventional method (Lee, J.-H. et al., J. Neurophysiol. 2002, 87, 2844-2850) using MPG (major pelvic ganglion).
Male Sprague-Dawley rats having about 250 g of an average body weight were employed as experimental animals. After the rats were anesthetized with sodium pentobarbital (50 mg/kg, i.p.), the abdomen was cut open immediately. MPG located on the left side of the prostate was extracted and then transferred in cold (4° C.) Hank's balanced salt solution (HBSS, GibcoBRL). The connective tissue encompassing the ganglion was stripped therefrom and a small gap was made carefully on the naked ganglion with a sharp knife. Then, the ganglion was cultured in 10 ml of modified Earle's balanced salt solution (EBSS, pH 7.4, GibcoBRL) supplemented with 0.7 mg/ml of collagenase (type D), 0.3 mg/ml of trypsin and 0.1 mg/ml of DNAse type I at 35° C. for 1 hour (Zhu et al., J. Physiol. Lond. 1995, 489, 363-375). At this time, 3.6 g/l of glucose and 10 mM HEPES were added to EBSS. After the cultivation was completed, the culture flask was shaken to separate call clusters into a single nerve cell and subjected to centrifugation at 1000 rpm with a clinical centrifuge (International Equipment Company, Mass., U.S.A.). The separated single nerve cells were re-suspended in MEM (GibcoBRL) supplemented with 10% fetal bovine serum, 1% glutamine and 1% penicillin/streptomycin. They were then spread on a polystyrene culture dish (35 mm) coated with poly-L-lysine. The culture dish was incubated at 37° C. humidified incubator (95% air-5% CO2) and the cells were used in the following experiment within 24 hours after the separation.
The voltage-dependent calcium and sodium current were recorded according to a typical patch clamping method using a patch clamp amplifier (Axopatch 1D, Axon Instruments, Foster City, Calif., U.S.A.) at a whole-cell ruptured configuration (Hamill et al., Pflügers Arch. 1981, 391, 85-100). An electrode was made from a borosilicate glass capillary tube (outer diameter; 1.65 mm, inner diameter; 1.2 mm, Corning 7052, Garner Glass Co., Claremont, Calif., U.S.A.) using P-97 Flaming-Brown micropipette puller (Sutter Instrument Co., Novato, Calif., U.S.A.) and forged smoothly by heating with a microforge. The electrode showing 1˜3 MΩ of resistance when filled with a solution was used for the following experiment. The culture dish containing the nerve cells was placed on an inverted microscope and the cell exterior solution was flowed into the dish at a flow rate of about 1˜2 ml/min. The membrane capacitance and series resistance were corrected by 80% or more with an amplifier. The voltage generation and record of calcium current were carried out using S4 software (provided by Dr. Stephen R. Ikeda, National Institute on Alcohol Abuse and Alcoholism, NIH, USA) equipped in Macintosh computer, which was connected to an analogue/digital converter (Digidata 1200, Axon Instruments Co.). The calcium current, which passed through a low band pass filter at 2˜5 kHz, was stored in Macintosh computer and analyzed with IGOR PRO (Wave-Metrics, Lake Oswego, Oreg., U.S.A.). All the experiments were conducted at a room temperature ranging from 20 to 22° C.
The electrode for measuring the calcium current was filled with the solution comprising 120 mM N-methyl-D-glucamine (NMG) methanesulfonate (MS), 20 mM tetraethylammonium (TEA)-MS, 20 mM HCl, 11 mM EGTA, 10 mM HEPES, 1 mM CaCl2, 4 mM MgATP, 0.3 mM Na2GTP and 14 mM tris-phosphocreatine (pH 7.2, 290 mOsm). The extracellular infusion fluid was composed of 140 mM MS, 145 mM TEA-OH, 10 mM HEPES, 15 mM glucose, 10 mM CaCl2 and 0.0003 mM tetrodotoxin (TTX, pH 7.4, 320 mOsm). […]

[2] = target: T1, T-type calcium channel α1H (Cav3.2) (Homo sapiens, UniProt O95180); experiment: Two-electrode voltage clamp on Xenopus unfertilized oocytes expressing α1H T-type calcium channel; format: cell-based; conditions: test potential -20 mV from -90 mV, read-out: inhibitory effect (blocking percentage), Xenopus oocyte (α1H) at 100 μM
T1 construct: expressed in transfected cells; host or cells: Xenopus laevis unfertilized oocytes injected with cRNA (pGEM-HEA linearised with AflII, T7 transcription)
Method: In order to express a gene encoding T-type calcium channel α1H (Cav3.2) (Cribbs, L. L. et al., Circ. Res., 1998, 83, 103-109) in unfertilized Xenopus oocytes, pGEM-HEA was treated with restriction enzyme AflII to obtain a DNA fragment containing 5′-terminal region having the T-type calcium channel cDNA (AF051946). cRNA having a corresponding sequence to that of the fragment was synthesized using T7 RNA polymerase according to the manufacturer's instructions (mMESSAGE mMACHINE kit, Ambion, Austin, U.S.A.). The synthesized cRNA was quantified by measuring the O.D. value with a spectrophotometer. At this time, unfertilized oocytes were prepared from female Xenopus laevis (Xenopus I, U.S.A.) according to the following method. After the frog's abdomen was incised by about 1 cm, three to four lobes were detached therefrom with scissors and separated into small pieces to which several oocytes were attached. The small pieces were hydrolyzed in OR solution (82.5 mM NaCl, 2.5 mM KCl, 1 mM MgCl2, 5 mM HEPES, pH 7.6) and supplemented with collagenase type IA (Sigma, U.S.A.) to remove defolliculation. After selecting healthy oocytes with a dissecting microscope, they were soaked in SOS solution (100 mM NaCl, 2 mM KCl, 1.8 mM CaCl2, 1 mM MgCl2, 5 mM HEPES, 2.5 mM pyruvate, […] gentamicin, pH 7.6) for 3 to 4 hours to revitalize them. 2 to 5 ng of cRNA was injected into each oocyte using Nano-injector. The oocytes were subjected to a test in order to examine the electrical properties of the channel expressed therefrom 4 to 5 days after the injection while being maintained at 18° C.
The current of the calcium channel expressed from the Xenopus unfertilized oocytes was measured according to a two-electrode voltage clamping method. The current was measured in 10 mM Ba^2+ solution (10 mM Ba(OH)2, 90 mM NaOH, 1 mM KCl, 0.1 mM EDTA, 5 mM HEPES, pH was adjusted to 7.4 with methanesulfonic acid). At this time, the voltage clamp and current measurement were regulated with an amplifier for unfertilized oocytes (Model OC-725C, Warner Instrument Corp., U.S.A.), and analog signals were converted into digital signals using Digidata 2000A (Analog-Digital converter, Axon Instrument). The acquisition, storage and analysis of all data were recorded in Pentium IV computer via pCLAMP8. The data were mainly collected at 5 KHz and filtered at 1 KHz (Model 902 filter; Frequency devices located at Harverhill, Mass., U.S.A.). The T-type current was generated by imposing test electric potential of −20 mV every 15 seconds on the unfertilized oocytes, the potential of which was fixed at −90 mV. A blocking percentage was calculated by comparing the […] before and after the drug treatment.

T1 sequence (O95180 whole entry): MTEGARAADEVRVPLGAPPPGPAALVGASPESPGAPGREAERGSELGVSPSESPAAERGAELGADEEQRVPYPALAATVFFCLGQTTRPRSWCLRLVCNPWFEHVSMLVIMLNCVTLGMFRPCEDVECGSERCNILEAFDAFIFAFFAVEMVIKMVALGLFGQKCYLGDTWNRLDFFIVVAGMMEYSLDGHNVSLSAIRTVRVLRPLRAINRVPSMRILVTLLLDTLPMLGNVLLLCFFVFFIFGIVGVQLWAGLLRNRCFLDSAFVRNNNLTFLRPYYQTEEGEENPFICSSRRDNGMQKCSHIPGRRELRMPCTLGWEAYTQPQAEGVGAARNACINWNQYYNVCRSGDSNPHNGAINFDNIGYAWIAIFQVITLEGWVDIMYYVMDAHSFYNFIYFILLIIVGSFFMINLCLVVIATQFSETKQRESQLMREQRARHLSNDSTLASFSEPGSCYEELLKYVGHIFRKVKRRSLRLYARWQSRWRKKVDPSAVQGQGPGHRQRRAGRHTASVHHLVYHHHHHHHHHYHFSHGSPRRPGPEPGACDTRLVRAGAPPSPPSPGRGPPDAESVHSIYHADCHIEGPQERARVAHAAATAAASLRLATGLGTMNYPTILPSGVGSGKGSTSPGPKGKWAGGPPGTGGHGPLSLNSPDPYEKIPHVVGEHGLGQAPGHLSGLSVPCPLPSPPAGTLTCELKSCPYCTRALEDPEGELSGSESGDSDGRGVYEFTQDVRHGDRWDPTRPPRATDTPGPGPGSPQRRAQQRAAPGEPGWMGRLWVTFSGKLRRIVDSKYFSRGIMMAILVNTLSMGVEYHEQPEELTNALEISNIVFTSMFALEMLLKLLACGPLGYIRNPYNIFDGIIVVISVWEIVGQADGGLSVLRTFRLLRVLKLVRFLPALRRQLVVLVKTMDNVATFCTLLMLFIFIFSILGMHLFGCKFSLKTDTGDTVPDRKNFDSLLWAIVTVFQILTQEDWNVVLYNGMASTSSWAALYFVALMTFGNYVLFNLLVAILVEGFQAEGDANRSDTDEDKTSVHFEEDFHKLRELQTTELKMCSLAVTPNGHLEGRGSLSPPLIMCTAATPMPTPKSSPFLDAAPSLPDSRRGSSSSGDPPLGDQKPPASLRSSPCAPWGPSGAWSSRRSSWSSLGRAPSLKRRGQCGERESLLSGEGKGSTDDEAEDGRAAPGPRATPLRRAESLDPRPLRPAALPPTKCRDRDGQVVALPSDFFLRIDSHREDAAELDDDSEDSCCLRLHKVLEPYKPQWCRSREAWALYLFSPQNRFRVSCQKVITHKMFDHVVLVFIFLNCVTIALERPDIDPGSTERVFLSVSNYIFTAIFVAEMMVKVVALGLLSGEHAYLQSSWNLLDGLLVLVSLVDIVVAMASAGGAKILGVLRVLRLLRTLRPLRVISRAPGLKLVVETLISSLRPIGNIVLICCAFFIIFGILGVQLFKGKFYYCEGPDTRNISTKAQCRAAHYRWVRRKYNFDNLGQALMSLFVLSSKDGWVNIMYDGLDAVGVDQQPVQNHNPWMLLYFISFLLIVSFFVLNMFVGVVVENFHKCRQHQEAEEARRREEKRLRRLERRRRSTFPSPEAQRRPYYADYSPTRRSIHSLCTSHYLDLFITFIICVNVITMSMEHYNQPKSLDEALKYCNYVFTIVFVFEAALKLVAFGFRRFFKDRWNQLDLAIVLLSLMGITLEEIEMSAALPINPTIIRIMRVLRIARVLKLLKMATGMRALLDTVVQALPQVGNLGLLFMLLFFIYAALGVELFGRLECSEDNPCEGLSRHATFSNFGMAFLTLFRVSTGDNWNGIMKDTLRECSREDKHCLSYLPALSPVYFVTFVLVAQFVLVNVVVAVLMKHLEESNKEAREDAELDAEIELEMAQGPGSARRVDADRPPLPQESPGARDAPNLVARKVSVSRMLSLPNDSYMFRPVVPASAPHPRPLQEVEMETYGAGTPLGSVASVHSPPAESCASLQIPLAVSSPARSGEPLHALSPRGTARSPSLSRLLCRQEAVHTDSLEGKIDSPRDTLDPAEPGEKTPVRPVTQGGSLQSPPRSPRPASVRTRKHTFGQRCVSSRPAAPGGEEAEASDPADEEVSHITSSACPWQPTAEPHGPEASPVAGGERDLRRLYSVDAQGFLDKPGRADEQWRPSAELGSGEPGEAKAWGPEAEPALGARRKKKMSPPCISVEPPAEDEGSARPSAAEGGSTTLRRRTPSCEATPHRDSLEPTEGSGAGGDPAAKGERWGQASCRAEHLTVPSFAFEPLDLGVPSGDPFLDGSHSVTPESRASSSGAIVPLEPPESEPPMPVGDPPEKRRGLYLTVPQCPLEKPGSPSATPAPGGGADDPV

inhibition at 100 µM [2] [%] | SMILES | selectivity for the sub-types of the calcium channel (T-type LVA vs N-type HVA) [1] | Inhibitory effect, Ca2+ channel N-type (HVA) [1]
77 | O=C(CC1c2ccccc2N=C(N2CCCCC2)N1c1ccccc1)NCc1ccccc1 (stereo not drawn) [KYS05001] | selectively inhibited only the T-type (LVA) calcium channel | n.i.^b
84.7 | Cc1ccc(S(=O)(=O)Nc2ccc(CNC(=O)CC3c4ccccc4N=C(N4CCCCC4)N3c3ccccc3)cc2)cc1 (stereo not drawn) [KYS05041, 4-{N-[4-(4-methylbenzenesulfonylamido)benzyl]acetamido}-3-phenyl-2-(piperidine-1-yl)-3,4-dihydroquinazoline] | relatively lower selectivity | >89%
80.5 | O=C(CC1c2ccccc2N=C(N2CCCCC2)N1c1ccccc1)NCc1ccc(NS(=O)(=O)c2ccc(F)cc2)cc1 (stereo not drawn) [KYS05042, 4-{N-[4-(4-fluorobenzenesulfonylamido)benzyl]acetamido}-3-phenyl-2-(piperidine-1-yl)-3,4-dihydroquinazoline] | relatively lower selectivity | >90%
